# ChEMBL document CHEMBL5365407, “Design, synthesis and biological evaluation of nitric oxide-releasing 5-cyano-6-phenyl-2, 4-disubstituted pyrimidine derivatives” (Bioorg Med Chem Lett, 2023)
# Calls of active or inactive are those of the source. The calls are words filed in the database; no cut-off is given here.
# Assays:
# [1] = tested on: MCF7; test: cells; details: Homo sapiens, MCF7, 72 h
# Description: Antiproliferative activity against human MCF7 cells measured after 72 hrs by MTT assay
# [2] = tested on: ECa-109 cell line; test: Antiproliferative activity against human Eca-109 cells measured after 72 hrs by MTT assay; format: functional, cell-based; details: ECa-109, 72 h
# [3] = tested on: PC-3; test: Antiproliferative activity against human PC-3 cells measured after 72 hrs by MTT assay; format: functional, cell-based; details: PC-3, 72 h
# [4] = tested on: MGC-803; test: cells; details: Homo sapiens, MGC-803, 72 h
# Description: Antiproliferative activity against human MGC-803 cells measured after 72 hrs by MTT assay
# [5] = Induction of NO release in phosphate buffer containing excess L-cysteine measured up to 14 hrs by Griess assay; format: functional
IC50 [1] [nM],IC50 [3] [nM],IC50 [4] [nM],SMILES,IC50 [2] [nM],Activity [5]
2720,1630,1080,N#Cc1c(Nc2cccc(F)c2)nc(SCC(=O)N2CCN(CCOc3no[n+]([O-])c3S(=O)(=O)c3ccccc3)CC2)nc1-c1ccccc1,4540,–
2140,2370,1360,Cc1ccc(Nc2nc(SCC(=O)N3CCN(CCOc4no[n+]([O-])c4S(=O)(=O)c4ccccc4)CC3)nc(-c3ccccc3)c2C#N)cc1,2940,–
2230,3520,1560,N#Cc1c(Nc2ccc(C(F)(F)F)cc2)nc(SCC(=O)N2CCN(CCOc3no[n+]([O-])c3S(=O)(=O)c3ccccc3)CC2)nc1-c1ccccc1,4640,–
3550,2180,3560,N#Cc1c(Nc2ccccc2)nc(SCC(=O)N2CCC(Oc3no[n+]([O-])c3S(=O)(=O)c3ccccc3)C2)nc1-c1ccccc1 (stereo unspecified),4390,–
7660,2320,7310,N#Cc1c(Nc2ccccc2)nc(SCC(=O)OCCCOc2no[n+]([O-])c2S(=O)(=O)c2ccccc2)nc1-c1ccccc1,8580,–
2960,1920,2000,N#Cc1c(Nc2ccccc2)nc(SCC(=O)N2CCN(CCOc3no[n+]([O-])c3S(=O)(=O)c3ccccc3)CC2)nc1-c1ccccc1,2270,–
6030,2280,2950,N#Cc1c(Nc2ccccc2)nc(SCC(=O)NCCCOc2no[n+]([O-])c2S(=O)(=O)c2ccccc2)nc1-c1ccccc1,5730,–
2230,1390,1560,N#Cc1c(Nc2ccc(F)cc2)nc(SCC(=O)N2CCN(CCOc3no[n+]([O-])c3S(=O)(=O)c3ccccc3)CC2)nc1-c1ccccc1,2480,–
3390,2720,1450,CCc1ccc(Nc2nc(SCC(=O)N3CCN(CCOc4no[n+]([O-])c4S(=O)(=O)c4ccccc4)CC3)nc(-c3ccccc3)c2C#N)cc1,5970,–
2740,2150,2040,CCCc1ccccc1Nc1nc(SCC(=O)N2CCN(CCOc3no[n+]([O-])c3S(=O)(=O)c3ccccc3)CC2)nc(-c2ccccc2)c1C#N,4610,–
4160,2370,2580,N#Cc1c(Nc2ccccc2)nc(SCC(=O)NCCOc2no[n+]([O-])c2S(=O)(=O)c2ccccc2)nc1-c1ccccc1,6350,–
2310,1940,1390,N#Cc1c(Nc2ccc(Br)cc2)nc(SCC(=O)N2CCN(CCOc3no[n+]([O-])c3S(=O)(=O)c3ccccc3)CC2)nc1-c1ccccc1,3320,–
2240,1420,1240,CCN1CCN(c2nc(SCC(=O)N3CCN(CCOc4no[n+]([O-])c4S(=O)(=O)c4ccccc4)CC3)nc(-c3ccccc3)c2C#N)CC1,2270,–
8950,6980,8130,N#Cc1c(-c2ccccc2)nc(SCC(=O)N2CCN(CCOc3no[n+]([O-])c3S(=O)(=O)c3ccccc3)CC2)nc1N1CCOCC1,6920,Active
2090,3380,1540,COc1cccc(Nc2nc(SCC(=O)N3CCN(CCOc4no[n+]([O-])c4S(=O)(=O)c4ccccc4)CC3)nc(-c3ccccc3)c2C#N)c1,4600,–
3360,1970,1070,N#Cc1c(Nc2ccc(F)c(Cl)c2)nc(SCC(=O)N2CCN(CCOc3no[n+]([O-])c3S(=O)(=O)c3ccccc3)CC2)nc1-c1ccccc1,2810,–
3610,2050,1460,CCOc1ccccc1Nc1nc(SCC(=O)N2CCN(CCOc3no[n+]([O-])c3S(=O)(=O)c3ccccc3)CC2)nc(-c2ccccc2)c1C#N,3750,–
5940,2280,3800,N#Cc1c(Nc2ccccc2)nc(SCC(=O)OCCCCCOc2no[n+]([O-])c2S(=O)(=O)c2ccccc2)nc1-c1ccccc1,> 50000,–
–,–,6740,O=S(=O)(c1ccccc1)c1c(OCCN2CCNCC2)no[n+]1[O-],–,–
2260,3020,1670,N#Cc1c(Nc2ccccc2C(F)(F)F)nc(SCC(=O)N2CCN(CCOc3no[n+]([O-])c3S(=O)(=O)c3ccccc3)CC2)nc1-c1ccccc1,3850,–
3030,2920,1890,CCCc1cccc(Nc2nc(SCC(=O)N3CCN(CCOc4no[n+]([O-])c4S(=O)(=O)c4ccccc4)CC3)nc(-c3ccccc3)c2C#N)c1,8050,–
2120,2100,1250,Cc1cccc(Nc2nc(SCC(=O)N3CCN(CCOc4no[n+]([O-])c4S(=O)(=O)c4ccccc4)CC3)nc(-c3ccccc3)c2C#N)c1,2380,–
5430,2840,2950,CCOc1ccc(Nc2nc(SCC(=O)N3CCN(CCOc4no[n+]([O-])c4S(=O)(=O)c4ccccc4)CC3)nc(-c3ccccc3)c2C#N)cc1,3570,–
2870,2400,1110,CCc1cccc(Nc2nc(SCC(=O)N3CCN(CCOc4no[n+]([O-])c4S(=O)(=O)c4ccccc4)CC3)nc(-c3ccccc3)c2C#N)c1,4100,–
10400,2060,2670,N#Cc1c(Nc2ccccc2)nc(SCC(=O)OCC#CCOc2no[n+]([O-])c2S(=O)(=O)c2ccccc2)nc1-c1ccccc1,3270,–

# The next lines start with the compound.
SMILES,IC50 [1] [nM],IC50 [3] [nM],IC50 [4] [nM],IC50 [2] [nM],Activity [5]
N#Cc1c(Nc2ccc(Cl)c(Cl)c2)nc(SCC(=O)N2CCN(CCOc3no[n+]([O-])c3S(=O)(=O)c3ccccc3)CC2)nc1-c1ccccc1,3350,1850,1880,3920,–
CN1CCN(c2nc(SCC(=O)N3CCN(CCOc4no[n+]([O-])c4S(=O)(=O)c4ccccc4)CC3)nc(-c3ccccc3)c2C#N)CC1,2690,1570,1460,2340,–
CCc1ccccc1Nc1nc(SCC(=O)N2CCN(CCOc3no[n+]([O-])c3S(=O)(=O)c3ccccc3)CC2)nc(-c2ccccc2)c1C#N,2600,2930,2010,4420,–
N#Cc1c(Nc2ccccc2F)nc(SCC(=O)N2CCN(CCOc3no[n+]([O-])c3S(=O)(=O)c3ccccc3)CC2)nc1-c1ccccc1,2280,1190,1440,3560,–
N#Cc1c(Nc2cccc(Br)c2)nc(SCC(=O)N2CCN(CCOc3no[n+]([O-])c3S(=O)(=O)c3ccccc3)CC2)nc1-c1ccccc1,3160,1550,1330,3450,–
N#Cc1c(Nc2ccccc2)nc(SCC(=O)OCCCCCCOc2no[n+]([O-])c2S(=O)(=O)c2ccccc2)nc1-c1ccccc1,> 50000,13000,> 50000,> 50000,–
C=CC(=O)Nc1cccc(Nc2nc(SCC(=O)N3CCN(CCOc4no[n+]([O-])c4S(=O)(=O)c4ccccc4)CC3)nc(-c3ccccc3)c2C#N)c1,4220,1880,1410,3660,–
N#Cc1c(Nc2ccccc2)nc(SCC(=O)OCCCCOc2no[n+]([O-])c2S(=O)(=O)c2ccccc2)nc1-c1ccccc1,5080,2450,7000,> 50000,–
N#Cc1c(Nc2ccccc2)nc(SCC(=O)NCCCCCOc2no[n+]([O-])c2S(=O)(=O)c2ccccc2)nc1-c1ccccc1,4020,2300,2210,4610,–
N#Cc1c(Nc2cccc(Cl)c2)nc(SCC(=O)N2CCN(CCOc3no[n+]([O-])c3S(=O)(=O)c3ccccc3)CC2)nc1-c1ccccc1,2510,1430,1190,2310,–
CCCc1ccc(Nc2nc(SCC(=O)N3CCN(CCOc4no[n+]([O-])c4S(=O)(=O)c4ccccc4)CC3)nc(-c3ccccc3)c2C#N)cc1,2070,1160,1090,5420,–
N#Cc1c(Nc2ccccc2)nc(SCC(=O)N2CCC(Oc3no[n+]([O-])c3S(=O)(=O)c3ccccc3)CC2)nc1-c1ccccc1,6020,2010,2570,7030,–
N#Cc1c(Nc2cccc(C(F)(F)F)c2)nc(SCC(=O)N2CCN(CCOc3no[n+]([O-])c3S(=O)(=O)c3ccccc3)CC2)nc1-c1ccccc1,2210,2190,1260,2890,–
N#Cc1c(Nc2ccc(Cl)cc2)nc(SCC(=O)N2CCN(CCOc3no[n+]([O-])c3S(=O)(=O)c3ccccc3)CC2)nc1-c1ccccc1,3040,2080,2050,3010,Active
N#Cc1c(-c2ccccc2)nc(SCC(=O)N2CCN(CCOc3no[n+]([O-])c3S(=O)(=O)c3ccccc3)CC2)nc1N1CCSCC1,6810,5050,4610,6680,–
COc1ccccc1Nc1nc(SCC(=O)N2CCN(CCOc3no[n+]([O-])c3S(=O)(=O)c3ccccc3)CC2)nc(-c2ccccc2)c1C#N,3300,1700,1460,4700,–
N#Cc1c(Nc2ccccc2)nc(SCC(=O)OCCc2ccc(Oc3no[n+]([O-])c3S(=O)(=O)c3ccccc3)cc2)nc1-c1ccccc1,> 50000,2100,18400,23100,–
Cc1ccccc1Nc1nc(SCC(=O)N2CCN(CCOc3no[n+]([O-])c3S(=O)(=O)c3ccccc3)CC2)nc(-c2ccccc2)c1C#N,2330,2250,1590,2480,–
